Results published in patent publication US12605396B2, “Methods of treating mastitis with an orthosomycin antimicrobial compound” (Intervet Inc., priority 2020, dated 2026).
Values after ≈ are worked out from the molar mass of the structure shown.

Legend:
Truep. pyogenes = assay: MIC in bacteriological broth (CLSI VET01-A4); format: cell-based, Trueperella pyogenes
Method: (§1) Minimal inhibitory concentrations (MIC) were determined in bacteriological broth according to Clinical and Laboratory Standard Institute (CLSI) guideline VET01-A4 [1]. The MIC results were interpreted according to the CLSI document VET01-S3 [2].

Strep. dysgalactiae = assay: MIC in bacteriological broth (CLSI VET01-A4); format: cell-based, Streptococcus dysgalactiae
Method: as §1

S. aureus [1] = assay: MIC in bacteriological broth (CLSI VET01-A4); format: cell-based, Staphylococcus aureus
Method: as §1

S. uberis = assay: MIC in bacteriological broth (CLSI VET01-A4); format: cell-based, Streptococcus uberis
Method: as §1

Streptococcus uberis = assay: Experimental mastitis infection model in lactating cows; format: in vivo; settings: oily suspension 200 mg/quarter intramammary, three consecutive times after milking, 21 days observation, FIG. 1
Method: In short, the hind quarters of 10 healthy cows were infected with Streptococcus uberis by intramammary application of 100 bacteria per quarter. At appearance of clinical signs of the challenged quarters (abnormal milk appearance, swollen/hard quarter, pain on palpation) one hind quarter of each cow was treated with an oily suspension of avilamycin at a dose of 200 mg/quarter at three consecutive times after milking. Furthermore, the neighboring infected hint quarter showing clinical signs was mock treated with formulation vehicle at the identical dose volume and schedule. Milk samples were analyzed for S. uberis over a period of 21 days.

S. aureus [2] = assay: MIC in full cream UHT milk with alamar Blue; format: cell-based, Staphylococcus aureus
Method: (§2) For MIC determination in milk, the in vitro activity was determined by measuring the minimum inhibitory concentrations (MIC) according to CLSI document VET01-A4 [1] using full cream UHT milk as test medium. About 2 h before the end of the incubation 10 μL of alamar Blue® was added to each well of the microdilution trays, resulting in a final concentration of 10% of alamar Blue®. Blue color of the medium indicated no living cells (no bacterial growth) red/pink to white color of the medium indicated living cells (bacterial growth). The MIC results were interpreted according to the CLSI document VET01-S3 [2].

[3] = tested on: mastitis-causing pathogens; assay: Antimicrobial activity against mastitis-causing pathogens (overall statement); format: cell-based; settings: broth-dilution assay and milk
Method: as §1, §2

Strep. agalactiae = assay: MIC in bacteriological broth (CLSI VET01-A4); format: cell-based, Streptococcus agalactiae
Method: as §1

coa-neg Staph. = assay: MIC in bacteriological broth (CLSI VET01-A4); format: cell-based, coagulase-negative staphylococci
Method: as §1

[4] = bacteriological broth, 30 Truep. pyogenes isolates tested
[5] = broth, of 30 Truep. pyogenes isolates
[6] = bacteriological broth, 29 Strep. dysgalactiae isolates tested
[7] = broth, of 29 Strep. dysgalactiae isolates
[8] = bacteriological broth, 50 S. aureus isolates tested
[9] = broth, of 50 S. aureus isolates
[10] = bacteriological broth, 30 S. uberis isolates tested
[11] = broth, of 30 S. uberis isolates
[12] = bacteriological broth, 30 Strep. agalactiae isolates tested
[13] = broth, of 30 Strep. agalactiae isolates
[14] = bacteriological broth, 30 coa-neg Staph. isolates tested
[15] = broth, of 30 coa-neg Staph. isolates

Structure (SMILES): COC[C@H]1O[C@@H](OC2OC[C@@H]3O[C@]4(O[C@H]3[C@H]2OC(=O)C(C)C)O[C@H](C)[C@@](O)(C(C)=O)[C@@H]2OCO[C@H]24)[C@@H](OC)[C@@H](O)[C@@H]1O[C@@H]1O[C@H](C)[C@H](OC)[C@H](O[C@H]2C[C@@]3(C)OC4(C[C@@H](O)[C@H](O[C@H]5C[C@@H](O)[C@H](OC(=O)c6c(C)c(Cl)c(O)c(Cl)c6OC)[C@@H](C)O5)[C@@H](C)O4)O[C@@H]3[C@@H](C)O2)[C@H]1O (some centres unmarked) [avilamycin]
- MIC50 (Truep. pyogenes; [4]): ≤0.063 µg/mL
- MIC90 (Truep. pyogenes; [4]): ≤0.063 µg/mL
- Maximum MIC (Truep. pyogenes; [4]): 0.125 µg/mL
- Minimum MIC (Truep. pyogenes; [4]): ≤0.063 µg/mL
- Number of isolates with MIC 0.125 μg/mL (Truep. pyogenes; [5]): 1
- Number of isolates with MIC ≤0.063 μg/mL (Truep. pyogenes; [5]): 29
- MIC50 (Strep. dysgalactiae; [6]): 0.125 µg/mL (≈ 0.089 µM)
- MIC90 (Strep. dysgalactiae; [6]): 0.25 µg/mL (≈ 0.178 µM)
- Maximum MIC (Strep. dysgalactiae; [6]): 0.25 µg/mL
- Minimum MIC (Strep. dysgalactiae; [6]): ≤0.063 µg/mL
- Number of isolates with MIC 0.125 μg/mL (Strep. dysgalactiae; [7]): 23
- Number of isolates with MIC 0.25 μg/mL (Strep. dysgalactiae; [7]): 5
- Number of isolates with MIC ≤0.063 μg/mL (Strep. dysgalactiae; [7]): 1
- MIC50 (S. aureus [1]; [8]): 2 µg/mL (≈ 1.42 µM)
- MIC90 (S. aureus [1]; [8]): 4 µg/mL (≈ 2.85 µM)
- Maximum MIC (S. aureus [1]; [8]): 4 µg/mL
- Minimum MIC (S. aureus [1]; [8]): 1 µg/mL
- Number of isolates with MIC 1 μg/mL (S. aureus [1]; [9]): 5
- Number of isolates with MIC 2 μg/mL (S. aureus [1]; [9]): 19
- Number of isolates with MIC 4 μg/mL (S. aureus [1]; [9]): 26
- MIC50 (S. uberis; [10]): 0.5 µg/mL (≈ 0.356 µM)
- MIC90 (S. uberis; [10]): 0.5 µg/mL (≈ 0.356 µM)
- Maximum MIC (S. uberis; [10]): 0.5 µg/mL
- Minimum MIC (S. uberis; [10]): 0.125 µg/mL
- Number of isolates with MIC 0.125 μg/mL (S. uberis; [11]): 1
- Number of isolates with MIC 0.25 μg/mL (S. uberis; [11]): 12
- Number of isolates with MIC 0.5 μg/mL (S. uberis; [11]): 17
- Proportion of quarters free of S. uberis compared to quarters treated with vehicle (Streptococcus uberis): substantially higher
- Activity in milk (S. aureus [2]): maintained its activity
- MIC90 against S. aureus compared with MIC90 of penicillin G (S. aureus [2]): significantly lower
- Distribution of MIC values: isolates with MIC 0.125 μg/ml (S. aureus [2]; S. aureus (n = 20)): 0
- Distribution of MIC values: isolates with MIC 0.25 μg/ml (S. aureus [2]; S. aureus (n = 20)): 0
- Distribution of MIC values: isolates with MIC 0.5 μg/ml (S. aureus [2]; S. aureus (n = 20)): 1
- Distribution of MIC values: isolates with MIC 1 μg/ml (S. aureus [2]; S. aureus (n = 20)): 1
- Distribution of MIC values: isolates with MIC 2 μg/ml (S. aureus [2]; S. aureus (n = 20)): 1
- Distribution of MIC values: isolates with MIC 4 μg/ml (S. aureus [2]; S. aureus (n = 20)): 16
- Distribution of MIC values: isolates with MIC 8 μg/ml (S. aureus [2]; S. aureus (n = 20)): 1
- Distribution of MIC values: isolates with MIC 16 μg/ml (S. aureus [2]; S. aureus (n = 20)): 0
- Distribution of MIC values: isolates with MIC 32 μg/ml (S. aureus [2]; S. aureus (n = 20)): 0
- Distribution of MIC values: isolates with MIC 64 μg/ml (S. aureus [2]; S. aureus (n = 20)): 0
- Distribution of MIC values: isolates with MIC >64 μg/ml (S. aureus [2]; S. aureus (n = 20)): 0
- Distribution of MIC values: isolates with MIC ≤0.063 μg/ml (S. aureus [2]; S. aureus (n = 20)): 0
- MIC90 (S. aureus [2]; S. aureus (n = 20)): 4 µg/mL (≈ 2.85 µM)
- Antimicrobial activity against mastitis-causing pathogens [3]: Good antimicrobial activity
- MIC50 (Strep. agalactiae; [12]): ≤0.063 µg/mL
- MIC90 (Strep. agalactiae; [12]): 0.125 µg/mL (≈ 0.089 µM)
- Maximum MIC (Strep. agalactiae; [12]): 0.125 µg/mL
- Minimum MIC (Strep. agalactiae; [12]): ≤0.063 µg/mL
- Number of isolates with MIC 0.125 μg/mL (Strep. agalactiae; [13]): 13
- Number of isolates with MIC ≤0.063 μg/mL (Strep. agalactiae; [13]): 17
- MIC50 (coa-neg Staph.; [14]): 2 µg/mL (≈ 1.42 µM)
- MIC90 (coa-neg Staph.; [14]): 4 µg/mL (≈ 2.85 µM)
- Maximum MIC (coa-neg Staph.; [14]): 32 µg/mL
- Minimum MIC (coa-neg Staph.; [14]): 1 µg/mL
- Number of isolates with MIC 1 μg/mL (coa-neg Staph.; [15]): 4
- Number of isolates with MIC 2 μg/mL (coa-neg Staph.; [15]): 13
- Number of isolates with MIC 4 μg/mL (coa-neg Staph.; [15]): 11
- Number of isolates with MIC 8 μg/mL (coa-neg Staph.; [15]): 1
- Number of isolates with MIC 32 μg/mL (coa-neg Staph.; [15]): 1
